According to patent US8030478B2, “Method for nucleic acid replication and novel artificial base pairs” (priority 2005, dated 2011):
Where two headings read alike, the source gives them in different places.

Legend:
[1] = biological target: T1, Klenow fragment lacking exonuclease activity (KF exo−) (Escherichia coli, UniProt P00582, D355A/E357A); assay type: biochemical, E. coli; conditions: for Efficiency (Vmax/KM) / Km / Vmax: 37° C.; for inserted products (KM, Vmax n.d.): 20 minutes, 1500 μM nucleoside 5′-triphosphate, 50 nM enzyme
T1 construct: enzyme solution of the Klenow fragment lacking exonuclease activity (KF exo^−, Amersham USB); purchased Amersham USB
T1 sequence (P00582 324-928 D355A/E357A): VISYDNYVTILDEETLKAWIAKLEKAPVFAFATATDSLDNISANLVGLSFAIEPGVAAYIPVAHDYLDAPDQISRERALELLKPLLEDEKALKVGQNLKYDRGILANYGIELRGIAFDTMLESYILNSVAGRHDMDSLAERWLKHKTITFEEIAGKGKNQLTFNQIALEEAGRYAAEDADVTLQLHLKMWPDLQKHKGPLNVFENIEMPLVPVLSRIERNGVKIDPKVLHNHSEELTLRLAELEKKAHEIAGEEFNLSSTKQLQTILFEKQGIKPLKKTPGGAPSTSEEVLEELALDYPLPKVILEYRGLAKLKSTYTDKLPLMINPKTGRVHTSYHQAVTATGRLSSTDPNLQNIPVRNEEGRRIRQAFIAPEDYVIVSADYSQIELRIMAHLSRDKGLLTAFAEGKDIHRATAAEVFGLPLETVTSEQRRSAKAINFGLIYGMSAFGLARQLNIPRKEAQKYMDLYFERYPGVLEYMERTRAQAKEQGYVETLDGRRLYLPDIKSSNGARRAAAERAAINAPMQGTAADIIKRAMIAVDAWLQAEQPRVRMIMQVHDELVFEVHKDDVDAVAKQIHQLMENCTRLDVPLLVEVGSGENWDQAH
Method: The single nucleotide insertion experiment was performed as described in documents (Non-patent Documents 30-32). A primer (20-mer) labeled with 6-carboxylfluorescein at the 5′-end was annealed with template DNA (35-mer) by heating at 95° C. and slow cooling to 4° C. in 100 mM Tris-HCl (pH 7.5) buffer containing 20 mM MgCl2, 2 mM DTT and 0.1 mg/ml bovine serum albumin. The primer-template duplex solution (10 μM, 5 μl) was mixed with 2 μl enzyme solution of the Klenow fragment lacking exonuclease activity (KF exo^−, Amersham USB). After the mixture was incubated for 2 minutes, each dNTP solution (3 μl) was added to this solution to start the reaction at 37° C. The amount of the enzyme used (5-50 nM), the reaction time (1-35 minutes) and the gradient concentration of each dNTP (0.3-1500 μM) were adjusted to ensure conditions giving 25% or less products. The reaction was stopped with 10 μl stop solution (95% formamide and 20 mM EDTA), and the mixture was immediately heated at 75° C. for 3 minutes. The diluted products were analyzed in an automated ABI377 DNA sequencer equipped with GeneScan software (version 3.0) (Non-patent Document 32). The relative velocity (v0) was calculated by dividing the extent of reaction by the reaction time, and then normalized to the enzyme concentration (20 nM) for the various enzyme concentrations used. Kinetic parameters (KM and Vmax) were obtained from Hanes-Woolf plots of [dNTP]/v0 against [dNTP].
Each parameter was averaged from 3 to 8 data sets.

[2] = biological target: Klenow fragment (KF exo+ / KF exo−) (Escherichia coli, UniProt P00582); conditions: dPaTP and natural substrates in the presence of the named substrate (0.5 or 1 molar equivalent of dPaTP); FIG. 2d
Sequence of Klenow fragment (KF exo+ / KF exo−) (Escherichia coli, UniProt P00582) (P00582 324-928): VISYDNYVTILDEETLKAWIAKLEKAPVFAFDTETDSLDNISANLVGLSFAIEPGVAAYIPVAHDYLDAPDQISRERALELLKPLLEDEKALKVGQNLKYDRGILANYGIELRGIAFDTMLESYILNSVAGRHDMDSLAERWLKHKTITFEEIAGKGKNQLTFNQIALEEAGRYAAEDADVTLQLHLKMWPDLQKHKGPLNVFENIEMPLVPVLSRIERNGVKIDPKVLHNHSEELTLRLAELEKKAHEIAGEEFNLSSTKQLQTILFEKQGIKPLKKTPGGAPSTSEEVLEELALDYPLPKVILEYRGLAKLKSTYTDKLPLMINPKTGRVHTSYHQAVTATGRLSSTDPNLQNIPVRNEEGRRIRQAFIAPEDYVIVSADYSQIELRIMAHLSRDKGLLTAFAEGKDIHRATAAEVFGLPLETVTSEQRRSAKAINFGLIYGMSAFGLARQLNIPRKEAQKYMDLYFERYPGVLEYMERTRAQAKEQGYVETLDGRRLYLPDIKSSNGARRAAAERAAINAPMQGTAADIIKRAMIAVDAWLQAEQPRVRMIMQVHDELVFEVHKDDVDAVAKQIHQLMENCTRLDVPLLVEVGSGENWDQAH
Method: (§1) [FIG. 2d] FIGS. 2a to 2e show single nucleotide insertion and primer extension experiments with an unnatural base pair system based on Ds-Pa base pairing.
(§2) [FIG. 2e] FIGS. 2a to 2e show single nucleotide insertion and primer extension experiments with an unnatural base pair system based on Ds-Pa base pairing.
(§3) A 5′-^32P-labeled primer (23-mer) and template DNA (35-mer) were annealed into duplex form in 20 mM Tris-HCl (pH 7.5) buffer containing 14 mM MgCl2 and 0.2 mM DTT. The duplex solution (400 nM, 5 μl) was mixed with each 5× dNTP solution (2 μl) on ice, followed by addition of 3 μl enzyme solution containing KF exo^− (1 unit) or KF exo^+ (1 unit) (TAKARA) to start the reaction. After the reaction solution was incubated at 37° C. for 3 or 5 minutes, a dye solution (10 μl) containing 89 mM Tris-borate, 2 mM EDTA, 10 M urea and 0.05% BPB was added to stop the reaction. […] The products on the gel were analyzed with a bio-imaging analyzer (model BAS2500, Fuji).

[3] = biological target: T7 RNA polymerase (Escherichia phage T7, UniProt P00573); conditions: for transcripts biotinylated (incorporation rate): DNA6 template obtained by ligation; for misincorporation opposite natural bases, yield of biotinylated transcripts / misincorporation per base position in the 152-mer transcripts: DNAcont2 template
Sequence of T7 RNA polymerase (P00573 whole entry, the tested form may be a part): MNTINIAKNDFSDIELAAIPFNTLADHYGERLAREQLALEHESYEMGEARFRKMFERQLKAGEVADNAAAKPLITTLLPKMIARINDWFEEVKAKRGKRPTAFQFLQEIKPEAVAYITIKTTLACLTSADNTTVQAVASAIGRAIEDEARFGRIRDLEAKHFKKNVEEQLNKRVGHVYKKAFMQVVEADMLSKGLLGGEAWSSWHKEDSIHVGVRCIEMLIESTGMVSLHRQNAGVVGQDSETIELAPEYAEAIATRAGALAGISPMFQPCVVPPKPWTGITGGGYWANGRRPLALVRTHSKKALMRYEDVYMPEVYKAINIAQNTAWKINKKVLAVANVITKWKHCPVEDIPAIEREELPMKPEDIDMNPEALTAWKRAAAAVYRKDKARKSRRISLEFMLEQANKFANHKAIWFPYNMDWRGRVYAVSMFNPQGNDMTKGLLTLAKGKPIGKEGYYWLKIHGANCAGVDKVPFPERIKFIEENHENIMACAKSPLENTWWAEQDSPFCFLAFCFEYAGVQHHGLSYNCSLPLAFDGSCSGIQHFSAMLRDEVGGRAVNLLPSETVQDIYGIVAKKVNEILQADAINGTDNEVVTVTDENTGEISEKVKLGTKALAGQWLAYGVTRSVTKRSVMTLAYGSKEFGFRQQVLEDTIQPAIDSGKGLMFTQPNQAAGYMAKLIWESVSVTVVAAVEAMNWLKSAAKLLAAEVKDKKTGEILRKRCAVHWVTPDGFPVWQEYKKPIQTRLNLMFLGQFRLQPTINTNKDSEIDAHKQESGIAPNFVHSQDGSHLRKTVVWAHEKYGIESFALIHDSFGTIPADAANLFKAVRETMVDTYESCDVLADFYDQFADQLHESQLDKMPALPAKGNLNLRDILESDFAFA
Method: 152-mer RNAs transcribed with Bio-PaTP from DNA6 template obtained by ligation and DNAcont2 template obtained by PCR amplification (20 cycles), as well as 152-mer RNAs transcribed with biotinylated UTP (Bio-UTP) from DNAcont5 and DNAcont6 templates obtained by ligation were mixed with streptavidin. Biotinylated RNA-streptavidin complexes were separated from free RNAs on a 7% polyacrylamide-7 M urea gel, and the percentages (yields) of the complexes were determined from their band intensity.
Transcription (20 μl) was performed for 6 hours at 37° C. using 3 μCi [γ-^32P]GTP, 2 mM each natural NTP, 0-4 mM Bio-PaTP (biotinylated Pa substrate: chemically synthesized as shown in Example IV), and 30 nM template (DNA6 and DNAcont2 (see FIG. 6), obtained by both ligation and PCR amplification).
For control reactions using DNAcont5 and DNAcont6 obtained by ligation (see FIG. 6), transcription was performed only with 2 mM ATP, GTP and CTP in the presence or absence of 2 mM Bio-UTP (biotin-16-uridine-5′-triphosphate, Roche Applied Science). The products were analyzed and purified on a 7-10% polyacrylamide-7 M urea gel.
The biotinylated RNA transcripts were detected by gel shift assay using streptavidin. A mixture (10 μl) of 2 pmol ^32P-labeled transcript and 100 pmol streptavidin (Promega) was incubated at 20° C. for 1 hour in 10 mM Tris-HCl buffer (pH 7.6) containing 50 mM NaCl and 10 mM EDTA. The biotinylated RNA-streptavidin complexes were analyzed by electrophoresis on a 7% polyacrylamide-7 M urea gel. To determine the position where Bio-Pa was introduced, each RNA (152-mer) was labeled with [γ-^32P]ATP (Perkin Elmer) after 5′-dephosphorylation with calf intestinal alkaline phosphatase (Takara). The labeled RNA was partially digested with RNase T1 at 55° C. for 12 minutes in 13.3 mM sodium citrate buffer (pH 5.0) containing 4.7 M urea, 0.7 mM EDTA and 0.17 mg/ml E. coli tRNA, or with alkali at 90° C. for 15 minutes in 32 mM sodium carbonate buffer (pH 9.1) containing 0.6 mM EDTA. The alkali-digested RNA solution (9 μl) was mixed with 11 μl of 20 mM Tris-HCl buffer (pH 7.6) containing 150 mM NaCl, and the mixture (10 μl) was then incubated with streptavidin magnetic beads (0.4 mg) (New England BioLabs) for 5 minutes at room temperature to capture the biotinylated RNA. An aliquot (5 μl) of the supernatant was analyzed together with other digested samples on a 10% polyacrylamide-7 M urea gel.

[4] = system: Klenow fragment (KF exo+ / KF exo−); conditions: FIG. 2e
Method: as §1, §2, §3

## O=P(O)(O)OP(=O)(O)OP(=O)(O)OC[C@H]1O[C@@H](n2cnc3c(-c4cccs4)ccnc32)C[C@@H]1O [dDsTP, 7-(2-Thienyl)-3-(2-deoxy-β-ribofuranosyl)-3H-imidazo[4,5-b]pyridine 5′-triphosphate]
[1]; template (N) = A, temp35N-2
  Efficiency (Vmax/KM): 3.6 × 10^4 % min^−1M^−1
  Km: 33 µM
  Vmax: 1.2 % min^−1
[1]; template (N) = C, temp35N-2
  Efficiency (Vmax/KM): 2.8 × 10^4 % min^−1M^−1
  Km: 47 µM
  Vmax: 1.3 % min^−1
[1]; template (N) = Ds, temp35N-1
  Efficiency (Vmax/KM): 2.0 × 10^5 % min^−1M^−1
  Km: 8 µM
  Vmax: 1.6 % min^−1
[1]; template (N) = G, temp35N-2
  Efficiency (Vmax/KM): 4.1 × 10^4 % min^−1M^−1
  Km: 37 µM
  Vmax: 1.5 % min^−1
[1]; template (N) = Pa, temp35N-2
  Efficiency (Vmax/KM): 1.1 × 10^4 % min^−1M^−1
  Km: 26 µM
  Vmax: 28 % min^−1
[1]; template (N) = Pa′, temp35N-2
  Efficiency (Vmax/KM): 8.8 × 10^5 % min^−1M^−1
  Km: 24 µM
  Vmax: 21 % min^−1
[1]; template (N) = T, temp35N-2
  Efficiency (Vmax/KM): 8.7 × 10^4 % min^−1M^−1
  Km: 45 µM
  Vmax: 3.9 % min^−1
[2]
  primer extension with KF exo+ on Ds-containing template: inhibited

## O=Cc1cc(C#CCNC(=O)CCCC[C@@H]2SC[C@@H]3NC(=O)N[C@@H]32)cn1[C@@H]1O[C@H](COP(=O)(O)OP(=O)(O)OP(=O)(O)O)[C@@H](O)[C@H]1O [Bio-PaTP, 1-(β-D-ribofuranosyl)-4-[(3-biotinamido-1-propynyl)]pyrrole-2-carbaldehyde 5′-triphosphate]
[3]; 2 mM Bio-PaTP
  transcripts biotinylated (incorporation rate): 90%
  misincorporation opposite natural bases, yield of biotinylated transcripts: 9%
  misincorporation per base position in the 152-mer transcripts: 0.06%
[3]; 4 mM Bio-PaTP
  transcripts biotinylated (incorporation rate): 96%
  misincorporation opposite natural bases, yield of biotinylated transcripts: 16%
  misincorporation per base position in the 152-mer transcripts: 0.12%
[3]; template from PCR (20 cycles), FIG. 44d, Lanes 9 and 11
  reduction of incorporation rate with template obtained by PCR amplification: 3-4%

## Nc1ccn([C@H]2C[C@H](O)[C@@H](COP(=O)(O)OP(=O)(O)OP(=O)(O)O)O2)c(=O)n1 [dCTP, reference compound]
[1]; template (N) = A, temp35N-1
  Efficiency (Vmax/KM): 1.8 × 10^3 % min^−1M^−1
  Km: 1200 µM
  Vmax: 2.2 % min^−1
[1]; template (N) = Ds, temp35N-1
  Efficiency (Vmax/KM): 8.3 × 10^2 % min^−1M^−1
  Km: 410 µM
  Vmax: 0.34 % min^−1
[1]; template (N) = G, temp35N-1
  Efficiency (Vmax/KM): 2.3 × 10^7 % min^−1M^−1
  Km: 0.24 µM
  Vmax: 5.5 % min^−1
[1]; template (N) = Pa, temp35N-2
  inserted products (KM, Vmax n.d.): n.d.^c (Minimal inserted products (<2%) were detected after incubation for 20 minutes with 1500 μM nucleoside 5′-triphosphate and 50 nM enzyme.)
[1]; template (N) = Pa′, temp35N-2
  inserted products (KM, Vmax n.d.): n.d. (Minimal inserted products (<2%) were detected after incubation for 20 minutes with 1500 μM nucleoside 5′-triphosphate and 50 nM enzyme.)

## O=Cc1cccn1[C@H]1C[C@H](O)[C@@H](COP(=O)(O)OP(=O)(O)OP(=O)(O)O)O1 [dPaTP]
[1]; template (N) = A, temp35N-1
  Efficiency (Vmax/KM): 5.2 × 10^4 % min^−1M^−1
  Km: 330 µM
  Vmax: 17 % min^−1
[1]; template (N) = C, temp35N-1
  inserted products (KM, Vmax n.d.): n.d. (Minimal inserted products (<2%) were detected after incubation for 20 minutes with 1500 μM nucleoside 5′-triphosphate and 50 nM enzyme.)
[1]; template (N) = Ds, temp35N-1
  Efficiency (Vmax/KM): 6.2 × 10^4 % min^−1M^−1
  Km: 340 µM
  Vmax: 21 % min^−1
[1]; template (N) = G, temp35N-1
  Efficiency (Vmax/KM): 4.4 × 10^2 % min^−1M^−1
  Km: 140 µM
  Vmax: 0.061 % min^−1
[1]; template (N) = Pa, temp35N-2
  Efficiency (Vmax/KM): 1.5 × 10^3 % min^−1M^−1
  Km: 380 µM
  Vmax: 0.56 % min^−1
[1]; template (N) = T, temp35N-1
  Efficiency (Vmax/KM): 3.1 × 10^2 % min^−1M^−1
  Km: 170 µM
  Vmax: 0.053 % min^−1

## Nc1nc2c(ncn2[C@H]2C[C@H](O)[C@@H](COP(=O)(O)OP(=O)(O)OP(=O)(O)O)O2)c(=O)[nH]1 [dGTP, reference compound]
[1]; template (N) = C, temp35N-2
  Efficiency (Vmax/KM): 7.0 × 10^6 % min^−1M^−1
  Km: 2.3 µM
  Vmax: 16 % min^−1
[1]; template (N) = Ds, temp35N-1
  inserted products (KM, Vmax n.d.): n.d.^c (Minimal inserted products (<2%) were detected after incubation for 20 minutes with 1500 μM nucleoside 5′-triphosphate and 50 nM enzyme.)
[1]; template (N) = Pa, temp35N-2
  Efficiency (Vmax/KM): 8.8 × 10^2 % min^−1M^−1
  Km: 480 µM
  Vmax: 0.42 % min^−1
[1]; template (N) = Pa′, temp35N-2
  Efficiency (Vmax/KM): 5.5 × 10^2 % min^−1M^−1
  Km: 800 µM
  Vmax: 0.44 % min^−1
[1]; template (N) = T, temp35N-2
  Efficiency (Vmax/KM): 2.9 × 10^3 % min^−1M^−1
  Km: 420 µM
  Vmax: 12 % min^−1

## biotin-16-uridine-5′-triphosphate [Bio-UTP, reference compound]
[3]; DNAcont5 template, 2 mM Bio-UTP, 2 mM ATP, GTP and CTP
  biotinylation of transcripts by incorporation opposite A: completely biotinylated
[3]; DNAcont6 template, 2 mM Bio-UTP, 2 mM ATP, GTP and CTP
  transcripts biotinylated by misincorporation opposite bases G, C and T: 21%

## CC#Cc1cc(C=O)n([C@H]2C[C@H](O)[C@@H](COP(=O)(O)OP(=O)(O)OP(=O)(O)O)O2)c1 [dPa′TP]
[1]; KF exo−, template Ds
  efficiency of incorporation opposite Ds in the template relative to that of dPaTP: 3.9 fold
[1]; template (N) = A, temp35N-1
  Efficiency (Vmax/KM): 1.8 × 10^5 % min^−1M^−1
  Km: 110 µM
  Vmax: 20 % min^−1
[1]; template (N) = C, temp35N-1
  Efficiency (Vmax/KM): 7.4 × 10^2 % min^−1M^−1
  Km: 80 µM
  Vmax: 0.059 % min^−1
[1]; template (N) = Ds, temp35N-1
  Efficiency (Vmax/KM): 2.6 × 10^5 % min^−1M^−1
  Km: 82 µM
  Vmax: 21 % min^−1
[1]; template (N) = G, temp35N-1
  Efficiency (Vmax/KM): 1.6 × 10^3 % min^−1M^−1
  Km: 80 µM
  Vmax: 0.13 % min^−1
[1]; template (N) = Pa′, temp35N-2
  Efficiency (Vmax/KM): 4.1 × 10^4 % min^−1M^−1
  Km: 190 µM
  Vmax: 7.8 % min^−1
[1]; template (N) = T, temp35N-1
  Efficiency (Vmax/KM): 1.6 × 10^3 % min^−1M^−1
  Km: 120 µM
  Vmax: 0.19 % min^−1

## Nc1ncnc2c1ncn2[C@H]1C[C@H](O)[C@@H](COP(=O)(O)OP(=O)(O)OP(N)(=O)O)O1 [dATPN, 6-Amino-9-(2-deoxy-β-D-ribofuranosyl)purine 5′-γ-amidotriphosphate]
[1]; template (N) = C, temp35N-2
  Efficiency (Vmax/KM): 3.4 × 10^2 % min^−1M^−1
  Km: 590 µM
  Vmax: 0.20 % min^−1
[1]; template (N) = Ds, temp35N-1
  Efficiency (Vmax/KM): 3.2 × 10^2 % min^−1M^−1
  Km: 150 µM
  Vmax: 0.048 % min^−1
[1]; template (N) = Pa, temp35N-2
  Efficiency (Vmax/KM): 1.8 × 10^3 % min^−1M^−1
  Km: 1200 µM
  Vmax: 2.2 % min^−1
[1]; template (N) = Pa′, temp35N-2
  Efficiency (Vmax/KM): 3.0 × 10^3 % min^−1M^−1
  Km: 800 µM
  Vmax: 2.4 % min^−1
[1]; template (N) = T, temp35N-2
  Efficiency (Vmax/KM): 2.5 × 10^5 % min^−1M^−1
  Km: 13 µM
  Vmax: 3.2 % min^−1
[4]; Lanes 4 and 5
  extension reaction after misincorporation opposite template Pa, compared to dATP: significantly reduced efficiency
[4]; dDsTPN opposite template Pa, dATPN opposite template T, Lanes 2 and 14
  primer extension after incorporation of the substrate: proceeded efficiently
